Structures are written as SMILES.

The experiment has as its target T1, recombinant IL4I1 (Homo sapiens, UniProt Q96RQ9).
T1 construct: purchased R&D Systems 5684-AO-020
T1 sequence (Q96RQ9 22-567): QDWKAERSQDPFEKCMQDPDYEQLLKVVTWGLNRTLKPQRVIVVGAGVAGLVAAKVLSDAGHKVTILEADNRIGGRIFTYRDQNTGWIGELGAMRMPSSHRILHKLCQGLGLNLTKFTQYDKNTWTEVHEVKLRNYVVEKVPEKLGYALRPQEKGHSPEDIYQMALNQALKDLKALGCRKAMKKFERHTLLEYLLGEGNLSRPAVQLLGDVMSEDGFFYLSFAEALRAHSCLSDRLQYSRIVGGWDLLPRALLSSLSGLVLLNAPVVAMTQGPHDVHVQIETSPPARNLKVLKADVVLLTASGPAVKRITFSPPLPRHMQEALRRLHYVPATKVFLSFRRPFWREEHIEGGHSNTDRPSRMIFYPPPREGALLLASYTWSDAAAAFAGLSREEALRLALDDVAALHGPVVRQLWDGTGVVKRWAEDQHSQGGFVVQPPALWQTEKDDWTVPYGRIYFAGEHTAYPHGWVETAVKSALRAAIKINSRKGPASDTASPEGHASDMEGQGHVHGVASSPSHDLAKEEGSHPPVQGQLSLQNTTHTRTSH
Description: IL4I1 Enzymatic Assay (Amplex Red/HRP coupled H2O2 detection). The format is biochemical. To be noted: 240 min; four-hour pre-incubation with compound; 1 nM IL4I1, 1 mM each Phe/Tyr/Trp; ten-point titration; fluorescence readout; read-out: Potency EC50 (nM) (240 min). As to the method: Interleukin 4 inducible protein 1 (IL4I1) is an L-amino oxidase that catalyzes the oxidation of aromatic residues (Phe, Trp and Tyr): L-amino acid+H2O+O2→2-oxo acid+NH3+H2O2. Equal molar of H2O2 and the corresponding alpha-ketoacid are produced when IL4I1 and substrate are added. In this assay, the hydrogen peroxide generated by IL4I1 is then detected through a coupled reaction with Amplex Red (10-acetyl-3,7-dihydroxyphenoxazine) and […] (HRP) to produce Resorufin product that could be detected in the form of fluorescence signals. The assessment of the inhibitory effect of small molecules (EC50) on IL4I1 is measured by the effectiveness of the compounds to inhibit the production of H2O2.
Using this assay, the potency (EC50) of each compound was determined from a ten-point (1:3 serial dilution) titration curve using the following outlined procedure. To each well of a black flat-bottom Greiner (Cat #781076) 384 well-plate, 25 nL of compound (0.1% DMSO in final assay volume of 25 μL) was dispensed, followed by the addition of 12.5 μL of 1x assay buffer (50 mM Hepes 7.0 and 0.005% Tween20 (Sigma, Cat #P8341; low peroxide grade)) containing 2 nM of recombinant IL4I1 (R&D Systems, Cat #5684-AO-020). Plates were placed in an ambient temperature humidified chamber for a four-hour pre-incubation with compound. Subsequently, each reaction was initiated by the addition of 12.5 μL 1x assay buffer containing 2 mM of each aromatic amino acids (Phe/Tyr/Trp), 0.1 mM Amplex Red and 2 U/mL of HRP. The final reaction in each well of 25 μL consists of 1 nM of IL411, 1 mM of each residues (Phe, Tyr and Trp), 0.05 mM Amplex Red and 1 U/mL of HRP. It should be noted that the concentrations of Amplex Red and HRP used here are in excess such that the conversion of H2O2 to Resorufin product occurs instantaneously and non-rate limiting. Reactions were allowed to proceed for 120 minutes followed by fluorescence readout on a Spectramax with the following set parameters: 544 nm excitation/590 nm emission, 570 nm cutoff (EnVision is an alternative reader). Dose-response curves were generated by plotting percent effect (% product conversion; Y-axis) vs. Log10 compound concentrations (X-axis). EC50 values were calculated using a non-linear regression, four-parameters sigmoidal dose-response model and are shown in Table 16.
What is called EC50 is the concentration giving half of the maximal effect. Turning to `O=C1CCCN1Cc1c(F)cc(Cn2c(=O)[nH]c3ccccc32)cc1F` [Example 23, 1-({3,5-difluoro-4-[(2-oxopyrrolidin-1-yl)methyl]phenyl}methyl)-1,3-dihydro-2H-benzimidazol-2-one], the EC50 was 18 nM. Turning to `N#Cc1cc(Cn2c(=O)[nH]c3ccccc32)ccc1CN1CCCC1=O` [Example 24, 5-((2-oxo-2,3-dihydro-1H-benzo[d]imidazol-1-yl)methyl)-2-((2-oxopyrrolidin-1-yl)methyl) benzonitrile], the concentration giving a half-maximal response (EC50) turned out to be 24 nM.

On to `O=C1CCCN1Cc1ncc(Cn2c(=O)[nH]c3ccccc32)cc1Cl` [Example 25, 1-((5-chloro-6-((2-oxopyrrolidin-1-yl)methyl)pyridin-3-yl)methyl)-1,3-dihydro-2H-benzo[d]imidazol-2-one], for which the EC50 was 47 nM. To `O=c1[nH]c2ccccc2n1Cc1ccc(CN2CCCS2(=O)=O)cc1` [Example 26, 1-(4-((1,1-dioxidoisothiazolidin-2-yl)methyl)benzyl)-1,3-dihydro-2H-benzo[d]imidazol-2-one] belongs 6 nM; to `O=c1[nH]c2ccccc2n1Cc1cccc(-c2nnco2)c1` [Example 27, 1-(3-(1,3,4-oxadiazol-2-yl)benzyl)-1,3-dihydro-2H-benzo[d]imidazol-2-one], 7 nM. On to `O=c1[nH]c2ccccc2n1Cc1ccc2c(c1)S(=O)(=O)CC2` [Example 28, 1-((1,1-dioxido-2,3-dihydrobenzo[b]thiophen-6-yl)methyl)-1,3-dihydro-2H-benzo[d]imidazol-2-one], for which the EC50 came out at 33 nM. As to `CNC(=O)c1cccc(Cn2c(=O)[nH]c3ccccc32)c1` [Example 29, N-methyl-3-[(2-oxo-2,3-dihydro-1H-benzimidazol-1-yl)methyl]benzamide], the EC50 turned out to be 5 nM. On to `O=c1[nH]c2ccccc2n1Cc1cc(C(F)F)cc(C(F)F)c1` [Example 30, 1-{[3,5-bis(difluoromethyl)phenyl]methyl}-1,3-dihydro-2H-benzimidazol-2-one], for which the concentration giving a half-maximal response (EC50) is 9 nM. Regarding `C[C@@H]1NC(=O)O[C@H]1c1cccc(Cn2c(=O)[nH]c3ccccc32)c1` [Example 31, 1-({3-[(4S,5S)-4-methyl-2-oxo-1,3-oxazolidin-5-yl]phenyl}methyl)-1,3-dihydro-2H-benzimidazol-2-one], the EC50 came to 15 nM. `CC(=O)Nc1ccc(Cn2c(=O)[nH]c3ccccc32)cc1F` [Example 32, N-{2-fluoro-4-[(2-oxo-2,3-dihydro-1H-benzimidazol-1-yl)methyl]phenyl} acetamide]: the EC50 came to 11 nM. With `CC1NC(=O)c2cc(Cn3c(=O)[nH]c4ccccc43)ccc21` (stereo not drawn) [Example 33, 1-[(1-methyl-3-oxo-2,3-dihydro-1H-isoindol-5-yl)methyl]-1,3-dihydro-2H-benzimidazol-2-one], the EC50 was 15 nM.

On to `O=c1[nH]c2ccccc2n1Cc1cnc2c(c1)CCC2` [Example 34, 1-[(6,7-dihydro-5H-cyclopenta[b]pyridin-3-yl)methyl]-1,3-dihydro-2H-benzimidazol-2-one], for which the EC50 came out at 153 nM. To `N#CC1(c2cccc(Cn3c(=O)[nH]c4ccccc43)c2)CC1` [Example 35, 1-{3-[(2-oxo-2,3-dihydro-1H-benzimidazol-1-yl)methyl]phenyl} cyclopropane-1-carbonitrile] belongs 2 nM; to `O=C1CCCN1Cc1sc(Cn2c(=O)[nH]c3ccccc32)cc1Cl` [Example 36, 1-((4-chloro-5-((2-oxopyrrolidin-1-yl)methyl)thiophen-2-yl)methyl)-1,3-dihydro-2H-benzo[d]imidazol-2-one], 9 nM. As to `CN(C)C(=O)Cc1ccc(Cn2c(=O)[nH]c3ccccc32)nc1` [Example 37, N,N-dimethyl-2-(6-((2-oxo-2,3-dihydro-1H-benzo[d]imidazol-1-yl)methyl)pyridin-3-yl)acetamide], the EC50 was 1600 nM. `CC(=O)NCc1sc(Cn2c(=O)[nH]c3ccccc32)cc1Cl` [Example 38, N-((3-chloro-5-((2-oxo-2,3-dihydro-1H-benzo[d]imidazol-1-yl)methyl)thiophen-2-yl)methyl)acetamide]: the EC50 worked out at 6 nM. In the case of `CS(=O)(=O)NCc1sc(Cn2c(=O)[nH]c3ccccc32)cc1Cl` [Example 39, N-((3-chloro-5-((2-oxo-2,3-dihydro-1H-benzo[d]imidazol-1-yl)methyl)thiophen-2-yl)methyl)methanesulfonamide], the EC50 turned out to be 5 nM. With `CC(=O)NCc1sc(Cn2c(=O)[nH]c3ccccc32)cc1C` [Example 40, N-((3-methyl-5-((2-oxo-2,3-dihydro-1H-benzo[d]imidazol-1-yl)methyl)thiophen-2-yl)methyl)acetamide], the concentration for a half-maximal effect (EC50) was determined as 7 nM. In the case of `O=C1CCCN1Cc1ccc(Cn2c(=O)[nH]c3ccccc32)cn1` [Example 41, 1-((6-((2-oxopyrrolidin-1-yl)methyl)pyridin-3-yl)methyl)-1,3-dihydro-2H-benzo[d]imidazol-2-one], the half-maximal effective concentration (EC50) was 127 nM. Take `N#Cc1n[nH]c2ccc(Cn3c(=O)[nH]c4ccccc43)cc12` [Example 42, 5-((2-oxo-2,3-dihydro-1H-benzo[d]imidazol-1-yl)methyl)-1H-indazole-3-carbonitrile]: the EC50 was 2 nM.

Regarding `O=C1N(Cc2ccc(Cn3c(=O)[nH]c4ccccc43)cc2)CCC1(F)F` [Example 43, 1-(4-((3,3-difluoro-2-oxopyrrolidin-1-yl)methyl)benzyl)-1,3-dihydro-2H-benzo[d]imidazol-2-one], the half-maximal effective concentration (EC50) was 10 nM. As for `CC(=O)NCc1ccc(Cn2c(=O)[nH]c3ccccc32)cc1Cl` [Example 44, N-(2-chloro-4-((2-oxo-2,3-dihydro-1H-benzo[d]imidazol-1-yl)methyl)benzyl)acetamide], the EC50 came out at 13 nM. The value for `CNC(=O)c1ccc(Cn2c(=O)[nH]c3ccccc32)s1` [Example 47, N-methyl-5-[(2-oxo-2,3-dihydro-1H-benzimidazol-1-yl)methyl]thiophene-2-carboxamide] was 3 nM; that for `CNC(=O)c1cc(C)cc(Cn2c(=O)[nH]c3ccccc32)c1` [Example 48, N,3-dimethyl-5-((2-oxo-2,3-dihydro-1H-benzo[d]imidazol-1-yl)methyl)benzamide] was 16 nM. Consider `CC(=O)NCc1ccc(Cn2c(=O)[nH]c3ccccc32)cc1C` [Example 49, N-(2-methyl-4-((2-oxo-2,3-dihydro-1H-benzo[d]imidazol-1-yl)methyl)benzyl)acetamide], for which the EC50 is 10 nM. On to `CC(=O)NCc1ccc(Cn2c(=O)[nH]c3ccccc32)c(C)c1` [Example 50, N-({3-methyl-4-[(2-oxo-2,3-dihydro-1H-benzimidazol-1-yl)methyl]phenyl}methyl)acetamide], for which the EC50 is 9 nM.

As for `CC(=O)NC(C)(C)c1ccc(Cn2c(=O)[nH]c3ccccc32)cc1` [Example 51, N-(2-{4-[(2-oxo-2,3-dihydro-1H-benzimidazol-1-yl)methyl]phenyl}propan-2-yl)acetamide], the half-maximal effective concentration (EC50) stood at 54 nM. On to `O=c1[nH]c2ccccc2n1Cc1ccc2c(c1)CCN2` [Example 52, 1-(indolin-5-ylmethyl)-1,3-dihydro-2H-benzo[d]imidazol-2-one], for which the EC50 turned out to be 18 nM.

For `Cn1cnnc1Cc1ccc(Cn2c(=O)[nH]c3ccccc32)cc1` [Example 53, 1-(4-((4-methyl-4H-1,2,4-triazol-3-yl)methyl)benzyl)-1,3-dihydro-2H-benzo[d]imidazol-2-one], the EC50 stood at 12 nM. Turning to `Cc1cc(Cn2c(=O)[nH]c3ccccc32)ccc1Cc1nnco1` [Example 54, 1-(4-((1,3,4-oxadiazol-2-yl)methyl)-3-methylbenzyl)-1,3-dihydro-2H-benzo[d]imidazol-2-one], the EC50 came out at 7 nM.
